Laboratory results taken from PubChem BioAssay (NCI).
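Results reflect a 48-hour exposure of cells in 96-well plates to compound at five concentrations. GI50 is the concentration that inhibits growth by half. TGI is the concentration that stops growth completely.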

Legend:
Test in all cases: NCI tumour cell line growth inhibition, 48 h
SF-539 CNS = tested on: SF-539 CNS
SR leukemia = tested on: SR leukemia
RPMI-8226 leukemia = tested on: RPMI-8226 leukemia
RXF 393 renal = tested on: RXF 393 renal
MCF7 breast = tested on: MCF7 breast
UO-31 renal = tested on: UO-31 renal
OVCAR-8 ovarian = tested on: OVCAR-8 ovarian
OVCAR-4 ovarian = tested on: OVCAR-4 ovarian
HT29 colon = tested on: HT29 colon
NCI-H23 lung = tested on: NCI-H23 lung

COc1ccc(-c2cc(-c3ccc(O)cc3)nc3nc(=S)[nH]c(N)c23)cc1
GI50 (SF-539 CNS): 2.46 µM
TGI (SF-539 CNS): 17.1 µM
GI50 (SR leukemia): 6.94 µM
TGI (SR leukemia): > 100 µM
GI50 (RPMI-8226 leukemia): 10.6 µM
TGI (RPMI-8226 leukemia): 25.7 µM
GI50 (RXF 393 renal): 28 µM
TGI (RXF 393 renal): 92.7 µM
GI50 (MCF7 breast): 12 µM
TGI (MCF7 breast): 35.6 µM
GI50 (UO-31 renal): 13.2 µM
TGI (UO-31 renal): 44.9 µM
GI50 (OVCAR-8 ovarian): 16.1 µM
TGI (OVCAR-8 ovarian): 43.1 µM
GI50 (OVCAR-4 ovarian): 25.3 µM
TGI (OVCAR-4 ovarian): > 100 µM
GI50 (HT29 colon): 30.1 µM
TGI (HT29 colon): > 100 µM
GI50 (NCI-H23 lung): 25 µM
TGI (NCI-H23 lung): 50.1 µM

O=C(CSc1nc2ccc([N+](=O)[O-])cc2[nH]1)Nc1cccc(Cl)c1
GI50 (SF-539 CNS): 3.02 µM
TGI (SF-539 CNS): 11.7 µM
GI50 (SR leukemia): 3.34 µM
TGI (SR leukemia): > 45.7 µM
GI50 (RPMI-8226 leukemia): 1.66 µM
TGI (RPMI-8226 leukemia): > 27.8 µM
GI50 (RXF 393 renal): 2.39 µM
TGI (RXF 393 renal): 8.49 µM
GI50 (MCF7 breast): 2.41 µM
TGI (MCF7 breast): 10.5 µM
GI50 (UO-31 renal): 1.97 µM
TGI (UO-31 renal): 9.99 µM
GI50 (OVCAR-8 ovarian): 3.02 µM
TGI (OVCAR-8 ovarian): > 39.1 µM
GI50 (OVCAR-4 ovarian): 2.13 µM
TGI (OVCAR-4 ovarian): 22.3 µM
GI50 (HT29 colon): 2.75 µM
TGI (HT29 colon): 10.7 µM
GI50 (NCI-H23 lung): 2.26 µM
TGI (NCI-H23 lung): 9.3 µM

O=C(/C=C/c1ccccn1)c1ccccc1O
GI50 (SF-539 CNS): 2.05 µM
TGI (SF-539 CNS): 4.2 µM
GI50 (SR leukemia): 1.7 µM
TGI (SR leukemia): 4.99 µM
GI50 (RXF 393 renal): 1.75 µM
TGI (RXF 393 renal): 3.25 µM
GI50 (MCF7 breast): 2.47 µM
TGI (MCF7 breast): 10.4 µM
GI50 (UO-31 renal): 1.31 µM
TGI (UO-31 renal): 2.6 µM
GI50 (OVCAR-8 ovarian): 3.34 µM
TGI (OVCAR-8 ovarian): 12.2 µM
GI50 (OVCAR-4 ovarian): 2.98 µM
TGI (OVCAR-4 ovarian): 8.84 µM
GI50 (HT29 colon): 2.23 µM
TGI (HT29 colon): 4.84 µM
GI50 (NCI-H23 lung): 2.35 µM
TGI (NCI-H23 lung): 8.76 µM

O=C(O)CN(CC(=O)O)Cc1cc2c(cc1O)Oc1cc(O)c(CN(CC(=O)O)CC(=O)O)cc1C21OC(=O)c2ccccc21
TGI (SF-539 CNS): > 100 µM
TGI (SR leukemia): > 100 µM
TGI (RPMI-8226 leukemia): > 100 µM
TGI (MCF7 breast): > 100 µM
TGI (UO-31 renal): > 100 µM
TGI (OVCAR-8 ovarian): > 100 µM
TGI (OVCAR-4 ovarian): > 100 µM
TGI (HT29 colon): > 100 µM
TGI (NCI-H23 lung): > 100 µM

COc1ccccc1CNCCCN1C(=O)c2ccc3c4c(ccc(c24)C1=O)C(=O)N(CCCNCCCCNCCCCN)C3=O
GI50 (SF-539 CNS): 2.15 µM
TGI (SF-539 CNS): 5.5 µM
GI50 (SR leukemia): 1.5 µM
TGI (SR leukemia): 17.7 µM
GI50 (RPMI-8226 leukemia): 1.83 µM
TGI (RPMI-8226 leukemia): 9.62 µM
GI50 (RXF 393 renal): 2.09 µM
TGI (RXF 393 renal): 10.1 µM
GI50 (MCF7 breast): 0.498 µM
TGI (MCF7 breast): 2.24 µM
GI50 (UO-31 renal): 3.44 µM
TGI (UO-31 renal): > 67.3 µM
GI50 (OVCAR-8 ovarian): 0.59 µM
TGI (OVCAR-8 ovarian): 6.59 µM
GI50 (OVCAR-4 ovarian): 0.346 µM
TGI (OVCAR-4 ovarian): 1.4 µM
GI50 (HT29 colon): 1.35 µM
TGI (HT29 colon): > 28.2 µM
GI50 (NCI-H23 lung): 2.43 µM
TGI (NCI-H23 lung): 7.59 µM

C=C1C(=O)O[C@H]2[C@H]1CC/C(COC(=O)/C=C\C(=O)NCc1ccc(Cn3c(=O)sn(-c4ccc(OC)cc4)c3=O)cc1)=C\CC[C@@]1(C)O[C@@H]21
GI50 (SF-539 CNS): 0.736 µM
TGI (SF-539 CNS): 1.41 µM
GI50 (SR leukemia): 0.322 µM
TGI (SR leukemia): 11.8 µM
GI50 (RPMI-8226 leukemia): 0.313 µM
TGI (RPMI-8226 leukemia): 2.43 µM
GI50 (RXF 393 renal): 0.51 µM
TGI (RXF 393 renal): 1.17 µM
GI50 (MCF7 breast): 0.292 µM
TGI (MCF7 breast): 1.17 µM
GI50 (UO-31 renal): 0.408 µM
TGI (UO-31 renal): 1.06 µM
GI50 (OVCAR-8 ovarian): 0.755 µM
TGI (OVCAR-8 ovarian): 2.62 µM
GI50 (OVCAR-4 ovarian): 0.706 µM
TGI (OVCAR-4 ovarian): 1.39 µM
GI50 (HT29 colon): 0.395 µM
TGI (HT29 colon): 1.64 µM
GI50 (NCI-H23 lung): 0.863 µM
TGI (NCI-H23 lung): 1.84 µM

CN(C)c1ccc(/C=C(\C#N)c2cc3ccccc3n2C)cc1
GI50 (SF-539 CNS): 0.208 µM
TGI (SF-539 CNS): 0.713 µM
GI50 (SR leukemia): 0.0396 µM
GI50 (RPMI-8226 leukemia): 0.351 µM
TGI (RPMI-8226 leukemia): > 100 µM
GI50 (RXF 393 renal): 0.133 µM
TGI (RXF 393 renal): 0.549 µM
GI50 (MCF7 breast): 0.0379 µM
TGI (MCF7 breast): > 100 µM
GI50 (UO-31 renal): 0.82 µM
TGI (UO-31 renal): > 100 µM
GI50 (OVCAR-8 ovarian): 0.405 µM
TGI (OVCAR-8 ovarian): > 100 µM
GI50 (OVCAR-4 ovarian): 0.701 µM
TGI (OVCAR-4 ovarian): > 100 µM
GI50 (HT29 colon): 0.121 µM
TGI (HT29 colon): 5.64 µM
GI50 (NCI-H23 lung): 0.56 µM
TGI (NCI-H23 lung): > 100 µM

CC(C)c1ccc2c(N=Nc3ccc(S(N)(=O)=O)cc3)c(O)[nH]c2c1
GI50 (SF-539 CNS): 5.56 µM
TGI (SF-539 CNS): > 25 µM
GI50 (SR leukemia): > 16.2 µM
TGI (SR leukemia): > 25 µM
GI50 (RPMI-8226 leukemia): > 25 µM
TGI (RPMI-8226 leukemia): > 25 µM
GI50 (RXF 393 renal): 4.41 µM
TGI (RXF 393 renal): > 16 µM
GI50 (MCF7 breast): > 14.7 µM
TGI (MCF7 breast): > 25 µM
GI50 (UO-31 renal): > 11.9 µM
TGI (UO-31 renal): > 20.7 µM
GI50 (OVCAR-8 ovarian): 10.3 µM
TGI (OVCAR-8 ovarian): > 20.1 µM
GI50 (OVCAR-4 ovarian): > 25 µM
TGI (OVCAR-4 ovarian): > 25 µM
GI50 (HT29 colon): > 25 µM
TGI (HT29 colon): > 25 µM
GI50 (NCI-H23 lung): 11.1 µM
TGI (NCI-H23 lung): > 25 µM

COC(=O)C(/C(=N/N)C(=O)Nc1ccc(C)c(C)c1)c1nc2ccc(Cl)cc2[nH]c1=O (stereo unspecified)
TGI (SF-539 CNS): > 100 µM
TGI (SR leukemia): > 100 µM
TGI (RPMI-8226 leukemia): > 100 µM
TGI (RXF 393 renal): > 100 µM
TGI (MCF7 breast): > 100 µM
TGI (UO-31 renal): > 100 µM
TGI (OVCAR-8 ovarian): > 100 µM
TGI (OVCAR-4 ovarian): > 100 µM
TGI (HT29 colon): > 100 µM
TGI (NCI-H23 lung): > 100 µM

O=C(CCCCCCC(=O)N/N=C/c1ccc(N(c2ccccc2)c2ccccc2)cc1)NO
GI50 (SF-539 CNS): 2.17 µM
TGI (SF-539 CNS): 4.95 µM
GI50 (SR leukemia): 2.38 µM
TGI (SR leukemia): 14.1 µM
GI50 (RPMI-8226 leukemia): 1.88 µM
TGI (RPMI-8226 leukemia): 14 µM
GI50 (RXF 393 renal): 2.27 µM
TGI (RXF 393 renal): 7.06 µM
GI50 (MCF7 breast): 0.601 µM
TGI (MCF7 breast): 11.3 µM
GI50 (UO-31 renal): 1.44 µM
TGI (UO-31 renal): 4.4 µM
GI50 (OVCAR-8 ovarian): 3.02 µM
TGI (OVCAR-8 ovarian): 20.8 µM
GI50 (OVCAR-4 ovarian): 1.65 µM
TGI (OVCAR-4 ovarian): 8.72 µM
GI50 (HT29 colon): 2.26 µM
TGI (HT29 colon): 6.76 µM
GI50 (NCI-H23 lung): 2.41 µM
TGI (NCI-H23 lung): 10.7 µM

CCCCCCCCCCCC1=NC(C)(C)CN1CCO
GI50 (SF-539 CNS): 4.37 µM
TGI (SF-539 CNS): 8.79 µM
GI50 (SR leukemia): 2.38 µM
TGI (SR leukemia): 5.79 µM
GI50 (RPMI-8226 leukemia): 2.3 µM
TGI (RPMI-8226 leukemia): 7.46 µM
GI50 (RXF 393 renal): 3.94 µM
TGI (RXF 393 renal): 10.5 µM
GI50 (MCF7 breast): 2.41 µM
TGI (MCF7 breast): 6.09 µM
GI50 (UO-31 renal): 7.25 µM
TGI (UO-31 renal): 21 µM
GI50 (OVCAR-8 ovarian): 10.7 µM
TGI (OVCAR-8 ovarian): 29.9 µM
GI50 (OVCAR-4 ovarian): 7.45 µM
TGI (OVCAR-4 ovarian): 21.5 µM
GI50 (HT29 colon): 2.12 µM
TGI (HT29 colon): 5.05 µM
GI50 (NCI-H23 lung): 5.56 µM
TGI (NCI-H23 lung): 18.6 µM

CCOCCc1c(O)nc(SC)[nH]c1=O
GI50 (SF-539 CNS): > 100 µM
TGI (SF-539 CNS): > 100 µM
GI50 (SR leukemia): > 100 µM
TGI (SR leukemia): > 100 µM
GI50 (RPMI-8226 leukemia): > 100 µM
TGI (RPMI-8226 leukemia): > 100 µM
GI50 (RXF 393 renal): > 100 µM
TGI (RXF 393 renal): > 100 µM
GI50 (MCF7 breast): > 100 µM
TGI (MCF7 breast): > 100 µM
GI50 (UO-31 renal): > 100 µM
TGI (UO-31 renal): > 100 µM
GI50 (OVCAR-8 ovarian): > 100 µM
TGI (OVCAR-8 ovarian): > 100 µM
GI50 (OVCAR-4 ovarian): > 100 µM
TGI (OVCAR-4 ovarian): > 100 µM
GI50 (HT29 colon): > 100 µM
TGI (HT29 colon): > 100 µM
GI50 (NCI-H23 lung): > 100 µM
TGI (NCI-H23 lung): > 100 µM

O=C1Nc2cc(Cl)ccc2Oc2cc(Oc3ccccc3)ccc21
GI50 (SF-539 CNS): 8.53 µM
TGI (SF-539 CNS): 40 µM
GI50 (SR leukemia): 2.89 µM
TGI (SR leukemia): 29.5 µM
GI50 (RPMI-8226 leukemia): 5.35 µM
TGI (RPMI-8226 leukemia): > 100 µM
GI50 (RXF 393 renal): 2.09 µM
TGI (RXF 393 renal): 9.87 µM
GI50 (MCF7 breast): 3.39 µM
TGI (MCF7 breast): 18.3 µM
GI50 (UO-31 renal): 6.52 µM
TGI (UO-31 renal): > 100 µM
GI50 (OVCAR-8 ovarian): 8.81 µM
TGI (OVCAR-8 ovarian): 78.4 µM
GI50 (OVCAR-4 ovarian): 6.52 µM
TGI (OVCAR-4 ovarian): 23.8 µM
GI50 (HT29 colon): 3.22 µM
TGI (HT29 colon): 18.3 µM
GI50 (NCI-H23 lung): 3.78 µM
TGI (NCI-H23 lung): 29.9 µM
